# From patent publication US5066671A, “Ellagic acid derivatives as phospholipase A2 inhibitors” (American Home Products Corporation, priority 1990, dated 1991)
# pIC50: −log10 of the molar value.
# Experiments:
# Human Synovial PLA2 = target: T1, Human Synovial PLA2 (Homo sapiens, UniProt P14555); assay: in vitro isolated phospholipase A2 assay, human synovial fluid PLA2; assay type: biochemical; details: for pIC50: compounds of the invention, read-out: IC50 HSF (human synovial fluid)
# T1 construct: Purified human synovial fluid; from tissue; host or cells: human synovial fluid (purified)
# T1 sequence (P14555 21-144): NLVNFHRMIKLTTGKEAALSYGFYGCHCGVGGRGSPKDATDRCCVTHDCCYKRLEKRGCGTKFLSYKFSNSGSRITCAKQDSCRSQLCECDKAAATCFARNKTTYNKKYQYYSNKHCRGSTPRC
# Method: (§1) The compounds of the invention are tested in an in vitro isolated phospholipase A2 assay to determine the ability of the test compounds to inhibit the release of arachidonic acid from an arachidonic acid-containing substrate by the action of phospholipase A2 enzyme from human and non-human sources.
# (§2) This assay is carried out as follows:
# (§3) Into a 15 mL polypropylene tube are added the following:
# (§4) ^3 H-AA E.coli substrate^1
# (§5) PLA2 25 Volume yielding 12%
# (§6) 100 hydrolysis in 10 min.
# (§7) *pre-incubate at room temperature 30 min prior to substrate addition.
# (§8) ^5 Stock 10 mM prepared in dimethyl sulfoxide. Make 1:2 dilution with
# (§9) dimethyl sulfoxide and add 1 μL to 100 μL assay tube.
# (§10) ^ 6 Two human PLA2 enzymes are used: (a) Semipurified human
# (§11) platelet acid extract PLA2 (in 10 mM sodium acetate buffer, pH 4.5).
# (§12) Remove protein precipitate by centrifugation at about 2200 rpm for 10
# (§13) minutes. (b) Purified human synovial fluid.
# (§14) Incubate the 100 μL reaction mixture for 10 minutes at 37° C. in a shaking water bath. The reaction is terminated by the addition of 2 mL tetrahydrofuran, followed by vortexing. NH2 columns (100 μg/mL-Analytichem International) are conditioned with 0.5 mL tetrahydrofuran followed by 0.5 mL tetrahydrofuran/water (2 mL:0.1 mL, v/v).
# (§15) The sample is loaded onto the columns and slowly drawn through them. The hydrolyzed arachidonic acid retained in the columns is eluted therefrom with 1 mL tetrahydrofuran/glacial acetic acid (2%). The arachidonic acid is transferred to scintillation vials and quantitated by β-counting analysis. A "total counts" sample is prepared by pipetting 25 μL ^3 H-arachidonate E. coli directly into a scintillation vial to which is added 1 mL tetrahydrofuran. 10 mL aquasol (scintillation cocktail) is added to all samples. [formula]
# [1] = system: paw edema induced by the exogenous administration of PLA2; assay: animal or person; assay type: in vivo, male CD-1 mice; details: for % Change in Edema, 10 min / ED50 mg/kg p.o. at +10 min. (result in words): 10 min after PLA2 injection; for % Change in Edema, 30 min: 30 min after PLA2 injection; for % Change in Edema, 60 min: 60 min after PLA2 injection; for ED50 mg/kg p.o. at +10 min.: mouse, in vivo; for ED50 mg/kg p.o. at +10 min. / ED50: po; for ED50 mg/kg p.o. at +10 min. (result in words): standard drugs; for ED50: Mus musculus, 10 min, read-out: ED50 mg/kg p.o. at +10 min.
# Method: The ability of the compounds of the invention to inhibit paw edema induced by the exogenous administration of PLA2 is measured in the in vivo PLA2 murine paw edema assay.
# The assay is carried out as follows:
# Non-fasted, male CD-1 mice (8 weeks old; 31-36 grams) are placed in plastic boxes in groups of six. The right hind paw volume is measured using mercury plethysmography (zero time). Compounds are dosed orally (0.5 mL of 0.5% Tween80) 1 or 3 hours prior to PLA2 injection or intravenously (0.2 mL in 0.3% dimethylsulfoxide/saline) 3 minutes prior to PLA2 injection. A solution of purified PLA2, from the diamond back cotton mouth snake (A. piscivorus piscivorus) is prepared in saline at a concentration of 6 μg/mL. Fifty (50) μL (0.3 μg) of this PLA2 solution is injected subcutaneously into the right hind paw with a plastic 1 mL plastic syringe (27 gauge, 1" needle). Paw volume of the injected paw is measured again at 10 minutes, 30 minutes and 60 minutes after PLA2 injection. Animals are euthanized with CO2 at the completion of the study.
# The paw edema is calculated by subtracting the zero time volume from the volume recorded at each time period. Mean paw edema for each treatment group is then calculated and expressed as (μL±S.E.). Drug effects are expressed as a percent change from control (vehicle) values. Statistical significance is determined by a oneway analysis of variance with LSD comparison to control (p<0.05). ED50 's are determined using repression analysis.
# carrageenan paw edema = assay: rat carrageenan paw edema assay; assay type: in vivo, male Sprague-Dawley rats; details: for ED50: Rattus norvegicus, po, 3 h, read-out: Oral ED50 (95% C.L.) mg/kg
# Method: The compounds of the invention are tested in the rat carrageenan paw edema assay to determine their ability to inhibit the acute inflammatory response.
# as §2
# 140-180 gm male Sprague-Dawley rats, in groups of 6 animals, are injected subcutaneously in the right paw with 0.1 ml of 1% carrageenan at zero time. Mercury plethysmographic readings (ml) of the paw are made at zero time and 3 hours later. Test compounds are suspended or dissolved in 0.5% methylcellulose and given perorally 1 hour prior to carrageenan administration.
# The increase in paw volume (edema in ml) produced by the carrageenan is measured. Paw edema is calculated (3 hour volume minus zero time volume), and percent inhibition of edema is determined. Unpaired Student's t-test is used to determine statistical significance.
# Human Platelet PLA2 = target: T2, Human Platelet PLA2 (Homo sapiens, UniProt P14555); assay: in vitro isolated phospholipase A2 assay, human platelet PLA2; assay type: biochemical
# T2 construct: platelet acid extract PLA2; from tissue; host or cells: human platelets (semipurified acid extract)
# T2 sequence (P14555 21-144): T1 sequence (P14555 21-144)
# Method: as §1, §2, §3, §4, §5, §6, §7, §8, §9, §10, §11, §12, §13, §14, §15
# [2] = system: synthesis of the arachidonic acid cyclooxygenase oxidation product TxB2; assay: inhibition of TxB2 synthesis by rat polymorphonuclear leukocytes (cyclooxygenase activity); assay type: cell-based; details: rat PMN
# Method: Rat polymorphonuclear leukocytes (PMNs) are obtained from female Wistar rats (150-200 g) which receive an injection of 6% glycogen (10 ml i.p.). Rats are sacrificed 18-24 hours post injection by CO2 asphyxiation and the elicited cells are harvested by peritoneal lavage using physiological saline (0.9% NaCl). The exudate is centrifuged at 400 xg for 10 minutes. The supernatant fluid is discarded and the cell pellet is resuspended to a concentration of 2.0×10^7 cells/mL in HBSS containing Ca^++ and Mg^++ and 10 μM L-cysteine.
# To 1 mL aliquots of cell suspension, test drugs or vehicle are added, then preincubated at 37° C. for 10 minutes. A23187 (1 μM), [^3 H]-AA (3.0 μCi/mL) and unlabeled AA (1 μM) are then added and the samples are further incubated for 10 minutes. The reaction is terminated by centrifugation and pelleting cells. Supernatants are then analyzed by HPLC analysis on a 15 cm×4.6 mm ID supelcosil LC-18 (Supelco)(3M) column, using a two solvent system at a flow rate of 1.4 mL total flow as follows:
# In this assay, the procedure of Example 1 is carried out as described. However, in order to determine cyclooxygenase activity, the samples are cochromatographed with authentic reference [^3 H]-TxB2.
# The results are calculated as in Example 1 and presented below: […]
# Hageman factor = details: Ratnoff et al., J. Lab. Clin. Med. 63, 359 (1964); cited from earlier work
# [3] = system: synthesis of LTB4 by rat glycogen-elicited polymorphonuclear leukocytes; assay: inhibition of LTB4 synthesis by rat glycogen-elicited polymorphonuclear leukocytes (PMN); assay type: cell-based; details: Leukocyte
# Method: Accordingly, the specificity of action of PLA2 inhibitors can be determined by the activity of test compounds in this assay, which measures the ability of compounds to inhibit the synthesis of LTB4 by rat glycogen-elicited polymorphonuclear leukocytes (PMN) in the presence of exogenous substrate.
# To 1 mL aliquots of cell suspension, test drugs or vehicle are added, then preincubated at 37° C. for 10 minutes. A23187 (1 μM), [^3 H]-AA (3.0 μCi/mL) and unlabeled AA (1 μM) are then added and the samples are further incubated for 10 minutes. […]
# Injections: 140 μL of each supernatant is injected directly onto column and ^3 H arachidonic acid metabolites are monitored using an on-line radioactivity detector (Ramona, IN/US, Fairfield, NJ). […]
# Results are expressed as percent inhibition at a given compound dose.
# [4] = system: paw edema induced by the exogenous administration of PLA2; assay type: in vivo, male CD-1 mice
# [5] = Derwent Publications 78-88538A; cited from earlier work
molecule,measurement,setting,value
"O=c1oc2c(O)c(O)cc3c(=O)oc4c(O)c(O)cc1c4c23 [Example 1, 4, 4', 5, 5', 6, 6'-hexahydrodiphenic acid 2,6, 2', 6'-dilactone]","% Inhibition, HSF (human synovial fluid)","Human Synovial PLA2; at 50 μM (footnote +), 50 µM",89.5%
same,inhibition at 50 µM,"Human Synovial PLA2; at 50 μM (footnote +), read-out: % Inhibition, HSF (human synovial fluid)",86.5%
same,pIC50,Human Synovial PLA2,7.68
same,"% Change in Edema, 10 min",[1]; 10 mg/kg i.v.,-22%
same,"% Change in Edema, 30 min",[1]; 10 mg/kg i.v.,-64%
same,"% Change in Edema, 60 min",[1]; 10 mg/kg i.v.,-18%
same,"% Change in Edema, 10 min",[1]; 100 mg/kg p.o.,-35%
same,"% Change in Edema, 30 min",[1]; 100 mg/kg p.o.,+4%
same,"% Change in Edema, 60 min",[1]; 100 mg/kg p.o.,-73%
same,% Inhibition at 50 mg/kg (peroral),"carrageenan paw edema; 50 mg/kg peroral, 1 hour prior to carrageenan, edema at 3 hours",37%
same,inhibition at 50 µM,"Human Platelet PLA2; at 50 μM (footnote +), read-out: % Inhibition, HP (human platelet)",38.8%
same,inhibition at 10 µM,[2]; Leukocyte,4%
same,ability to activate Hageman factor,Hageman factor,ability to activate Hageman factor
same,inhibition at 10 µM,[3],39%
"C[C@@H]1C[C@H]2[C@@H]3CCC4=CC(=O)C=C[C@]4(C)[C@@]3(F)[C@@H](O)C[C@]2(C)[C@@]1(O)C(=O)CO [Dexamethasone, reference compound]",ED50 mg/kg p.o. at +10 min.,[1],10 mg/kg
Luffarrellolide [reference compound],ED50 mg/kg p.o. at +10 min. (result in words),[1],Not Active
same,inhibition only when coinjected with enzyme,[4],30%
"COc1ccc2cc([C@H](C)C(=O)O)ccc2c1 [Naproxen, reference compound]",ED50 mg/kg p.o. at +10 min.,[1],18 mg/kg
CC(=O)Oc1ccccc1C(=O)O [Aspirin],ED50,carrageenan paw edema,145 mg/kg
Ellagic Acid Diacetate [Example 3],"% Inhibition at 10 μM, HSF (human synovial fluid)",Human Synovial PLA2; at 10 μM,95.6%
same,pIC50,Human Synovial PLA2,6.44
same,"% Inhibition at 10 μM, HP (human platelet)",Human Platelet PLA2; at 10 μM,0%
same,% Inhibition (TxB2 synthesis),[2]; at 10 μM,9%
"CC(=O)Oc1cc2c(=O)oc3c(OC(C)=O)c(OC(C)=O)cc4c(=O)oc(c1OC(C)=O)c2c34 [Example 2, Ellagic Acid Tetraacetate]",inhibition at 10 µM,"Human Synovial PLA2; read-out: % Inhibition at 10 μM, HSF (human synovial fluid)",90.7%
same,inhibition at 10 µM,"Human Platelet PLA2; read-out: % Inhibition at 10 μM, HP (human platelet)",-16.6%
same,inhibition at 10 µM,[3],-31%
"COc1cccc2c1cc([N+](=O)[O-])c1c(C(=O)O)cc3c(c12)OCO3 [Aristolochic Acid, reference compound]",ED50 mg/kg p.o. at +10 min. (result in words),[1],Not Active
same,inhibition only when coinjected with enzyme,[4],30%
COc1ccc2c(c1)c(CC(=O)O)c(C)n2C(=O)c1ccc(Cl)cc1 [Indomethacin],ED50,carrageenan paw edema,3.7 mg/kg
"CN1CCC(=C2c3ccccc3C=Cc3ccccc32)CC1 [Cyproheptadine, reference compound]",ED50,[1],3.1 mg/kg
"NC1=NN(c2cccc(C(F)(F)F)c2)CC1 [BW755C, reference compound]",ED50,[1],50 mg/kg
"COc1c(O)cc2c(=O)oc3c(OC)c(O)cc4c(=O)oc1c2c34 [3,3'dimethyl ellagic acid]",antitumor activity,[5],antitumor activity
